Data reported in US8580829B2 (Boehringer Ingelheim International GmbH, priority 2010, dated 2013).

Assays:
[1] = biological target: T1, recombinant human FLAP protein (Homo sapiens, UniProt P20292); assay: FLAP binding assay (Scintillation Proximity Assay, displacement of [125I]L-691,831); details: recombinant human FLAP membranes, [125I]L-691,831 probe; read-out: FLAP SPA IC50
T1 construct: made in house; host or cells: Sf9 insect cells (100,000 x g membrane fraction)
T1 sequence (P20292 1-161): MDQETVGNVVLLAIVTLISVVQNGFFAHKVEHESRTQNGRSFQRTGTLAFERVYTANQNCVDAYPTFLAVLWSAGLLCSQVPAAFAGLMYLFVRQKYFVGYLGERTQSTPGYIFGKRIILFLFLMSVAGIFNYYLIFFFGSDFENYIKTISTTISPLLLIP
Method in brief: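 Membranes came from Sf9 insect cells expressing recombinant human FLAP, collected as the 100,000×g pellet in Tris pH 7.5/MgCl2/EDTA buffer. 5 μg membrane protein was coupled to WGA SPA beads for 1 h.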

[2] = tested on: synthesis of LTB4 in human whole blood; assay: human whole blood LTB4 production inhibition assay; type: cell-based; details: Homo sapiens, heparinized human whole blood, calcimycin 20 μM; read-out: hWB LTB4 IC50
Method in brief: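 LTB4 levels in plasma were measured by antibody-based HTRF after heparinized human whole blood, pretreated with compound (15 min, 37° C), was challenged with 20 μM calcimycin for 30 min at 37° C.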

Row | IC50 [1] | IC50 [2] | Structure (SMILES)
1 | 2 nM | > 5000 nM | Nc1ncc(-c2ccc(C3(c4noc(-c5cnn(CC(=O)NC6CCNCC6)c5)n4)CCC3)cc2)cn1 [Example 237, 2-[4-(3-{1-[4-(2-Amino-pyrimidin-5-yl)-phenyl]-cyclobutyl}-[1,2,4]oxadiazol-5-yl)-pyrazol-1-yl]-N-piperidin-4-yl-acetamide]
2 | 1 nM | 37 nM | N#CCn1cc(-c2nc(C3(c4ccc(-c5cnc(N)nc5)cc4)CCC3)no2)cn1 [Example 238, [4-(3-{1-[4-(2-Amino-pyrimidin-5-yl)-phenyl]-cyclobutyl}-[1,2,4]oxadiazol-5-yl)-pyrazol-1-yl]-acetonitrile]
3 | 6.2 nM | 2500 nM | Nc1ncc(-c2ccc(C3(c4noc(-c5cnn(CC(=O)N6CCC(O)C6)c5)n4)CCC3)cc2)cn1 (centres unmarked) [Example 239, 2-[4-(3-{1-[4-(2-Amino-pyrimidin-5-yl)-phenyl]-cyclobutyl}-[1,2,4]oxadiazol-5-yl)-pyrazol-1-yl]-1-(3-hydroxy-pyrrolidin-1-yl)-ethanone]
4 | 3.6 nM | 47 nM | CN(C)CCn1cc(-c2nc(C3(c4ccc(-c5cnc(N)nc5)cc4)CCC3)no2)cn1 [Example 240, 5-[4-(1-{5-[1-(2-Dimethylamino-ethyl)-1H-pyrazol-4-yl]-[1,2,4]oxadiazol-3-yl}-cyclobutyl)-phenyl]-pyrimidin-2-ylamine]
5 | 3.5 nM | 140 nM | COCCN(C)C(=O)Cn1cc(-c2nc(C3(c4ccc(-c5cnc(N)nc5)cc4)CCC3)no2)cn1 [Example 241, 2-[4-(3-{1-[4-(2-Amino-pyrimidin-5-yl)-phenyl]-cyclobutyl}-[1,2,4]oxadiazol-5-yl)-pyrazol-1-yl]-N-(2-methoxy-ethyl)-N-methyl-acetamide]
6 | 5.4 nM | 120 nM | CN(CC1CCCO1)C(=O)Cn1cc(-c2nc(C3(c4ccc(-c5cnc(N)nc5)cc4)CCC3)no2)cn1 (centres unmarked) [Example 242, 2-[4-(3-{1-[4-(2-Amino-pyrimidin-5-yl)-phenyl]-cyclobutyl}-[1,2,4]oxadiazol-5-yl)-pyrazol-1-yl]-N-methyl-N-(tetrahydro-furan-2-ylmethyl)-acetamide]
7 | 8.5 nM | 200 nM | CC(C)N1CCN(C(=O)Cn2cc(-c3nc(C4(c5ccc(-c6cnc(N)nc6)cc5)CCC4)no3)cn2)CC1 [Example 243, 2-[4-(3-{1-[4-(2-Amino-pyrimidin-5-yl)-phenyl]-cyclobutyl}-[1,2,4]oxadiazol-5-yl)-pyrazol-1-yl]-1-(4-isopropyl-piperazin-1-yl)-ethanone]
8 | 250 nM | > 5000 nM | Nc1ncc(-c2ccc(C3(c4noc(-c5cn(C(c6ccccc6)(c6ccccc6)c6ccccc6)cn5)n4)CCC3)cc2)cn1 [Example 244, 5-(4-{1-[5-(1-Trityl-1H-imidazol-4-yl)-[1,2,4]oxadiazol-3-yl]-cyclobutyl}-phenyl)-pyrimidin-2-ylamine]
9 | 38 nM | 1700 nM | Cn1ccnc1-c1nc(C2(c3ccc(-c4cnc(N)nc4)cc3)CCC2)no1 [Example 245, 5-(4-{1-[5-(1-Methyl-1H-imidazol-2-yl)-[1,2,4]oxadiazol-3-yl]-cyclobutyl}-phenyl)-pyrimidin-2-ylamine]
10 | 8.1 nM | 79 nM | N#CC1CCN(CCn2cc(-c3nc(C4(c5ccc(-c6cnc(N)nc6)cc5)CCC4)no3)cn2)CC1 [Example 246, 1-{2-[4-(3-{1-[4-(2-Amino-pyrimidin-5-yl)-phenyl]-cyclobutyl}-[1,2,4]oxadiazol-5-yl)-pyrazol-1-yl]-ethyl}-piperidine-4-carbonitrile]
11 | 8.2 nM | 88 nM | CN(C(=O)Cn1cc(-c2nc(C3(c4ccc(-c5cnc(N)nc5)cc4)CCC3)no2)cn1)C1CCCOC1 (centres unmarked) [Example 247, 2-[4-(3-{1-[4-(2-Amino-pyrimidin-5-yl)-phenyl]-cyclobutyl}-[1,2,4]oxadiazol-5-yl)-pyrazol-1-yl]-N-methyl-N-(tetrahydro-pyran-3-yl)-acetamide]
12 | 730 nM | > 5000 nM | Cn1cc(-c2nc(C3(c4ccc(-c5ccc(C6CC6)nc5)cc4)CCC3)no2)cn1 [Example 248, 2-Cyclopropyl-5-(4-{1-[5-(1-methyl-1H-pyrazol-4-yl)-[1,2,4]oxadiazol-3-yl]-cyclobutyl}-phenyl)-pyridine]
13 | 7.8 nM | 69 nM | CC(CN(C)C)n1cc(-c2nc(C3(c4ccc(-c5cnc(N)nc5)cc4)CCC3)no2)cn1 (centres unmarked) [Example 249, 5-[4-(1-{5-[1-(2-Dimethylamino-1-methyl-ethyl)-1H-pyrazol-4-yl]-[1,2,4]oxadiazol-3-yl}-cyclobutyl)-phenyl]-pyrimidin-2-ylamine]
14 | 8.6 nM | 220 nM | CC(=O)N1CCN(CCn2cc(-c3nc(C4(c5ccc(-c6cnc(N)nc6)cc5)CCC4)no3)cn2)CC1 [Example 250, 1-(4-{2-[4-(3-{1-[4-(2-Amino-pyrimidin-5-yl)-phenyl]-cyclobutyl}-[1,2,4]oxadiazol-5-yl)-pyrazol-1-yl]-ethyl}-piperazin-1-yl)-ethanone]
15 | 36 nM | 2200 nM | CN(C)C(=O)Cn1cnc(-c2nc(C3(c4ccc(-c5cnc(N)nc5)cc4)CCC3)no2)c1 [Example 251, 2-[4-(3-{1-[4-(2-Amino-pyrimidin-5-yl)-phenyl]-cyclobutyl}-[1,2,4]oxadiazol-5-yl)-imidazol-1-yl]-N,N-dimethyl-acetamide]
16 | 5.3 nM | 34 nM | Nc1ccc(-c2ccc(C3(c4noc(-c5cnn(C6COC6)c5)n4)CCC3)cc2)cn1 [Example 252, 5-(4-{1-[5-(1-Oxetan-3-yl-1H-pyrazol-4-yl)-[1,2,4]oxadiazol-3-yl]-cyclobutyl}-phenyl)-pyridin-2-ylamine]
17 | 8.1 nM | 75 nM | Nc1ncc(-c2ccc(C3(c4noc(-c5cnn(CCN6CCCC6)c5)n4)CCC3)cc2)cn1 [Example 253, 5-[4-(1-{5-[1-(2-Pyrrolidin-1-yl-ethyl)-1H-pyrazol-4-yl]-[1,2,4]oxadiazol-3-yl}-cyclobutyl)-phenyl]-pyrimidin-2-ylamine]
18 | 190 nM | 4700 nM | CC(C)(O)Cn1cc(-c2nc(C3(c4ccc(-c5cnc(N)nc5)cc4)CC3)no2)cn1 [Example 254, 1-[4-(3-{1-[4-(2-Amino-pyrimidin-5-yl)-phenyl]-cyclopropyl}-[1,2,4]oxadiazol-5-yl)-pyrazol-1-yl]-2-methyl-propan-2-ol]
19 | 150 nM | 1900 nM | Nc1ncc(-c2ccc(C3(c4noc(-c5cnn(C6COC6)c5)n4)CC3)cc2)cn1 [Example 255, 5-(4-{1-[5-(1-Oxetan-3-yl-1H-pyrazol-4-yl)-[1,2,4]oxadiazol-3-yl]-cyclopropyl}-phenyl)-pyrimidin-2-ylamine]
20 | 22 nM | 220 nM | CO[C@@H]1CCN(C(=O)Cn2cc(-c3nc(C4(c5ccc(-c6cnc(N)nc6)cc5)CCC4)no3)cn2)C1 [Example 256, 2-[4-(3-{1-[4-(2-Amino-pyrimidin-5-yl)-phenyl]-cyclobutyl}-[1,2,4]oxadiazol-5-yl)-pyrazol-1-yl]-1-((R)-3-methoxy-pyrrolidin-1-yl)-ethanone]
21 | 100 nM | 2200 nM | Cn1cc(-c2nc(C3(c4ccc(-c5cnc(N)nc5)cc4)CC3)no2)cn1 [Example 257, 5-(4-{1-[5-(1-Methyl-1H-pyrazol-4-yl)-[1,2,4]oxadiazol-3-yl]-cyclopropyl}-phenyl)-pyrimidin-2-ylamine]
22 | 73 nM | 610 nM | Cn1cc(-c2nc(C3(c4ccc(-c5ccc(N)nn5)cc4)CCC3)no2)cn1 [Example 258, 6-(4-{1-[5-(1-Methyl-1H-pyrazol-4-yl)-[1,2,4]oxadiazol-3-yl]-cyclobutyl}-phenyl)-pyridazin-3-ylamine]
23 | 16 nM | 210 nM | CO[C@H]1CCN(C(=O)Cn2cc(-c3nc(C4(c5ccc(-c6cnc(N)nc6)cc5)CCC4)no3)cn2)C1 [Example 259, 2-[4-(3-{1-[4-(2-Amino-pyrimidin-5-yl)-phenyl]-cyclobutyl}-[1,2,4]oxadiazol-5-yl)-pyrazol-1-yl]-1-((S)-3-methoxy-pyrrolidin-1-yl)-ethanone]
24 | 76 nM | 2000 nM | Cn1cc(-c2nc(C3(c4ccc(-c5ccc(N)c(C#N)c5)cc4)CCC3)no2)cn1 [Example 260]
25 | 9.3 nM | 240 nM | Cn1cc(-c2nc(C3(c4ccc(-c5cnc(N)c(C#N)c5)cc4)CCC3)no2)cn1 [Example 261, 2-Amino-5-(4-{1-[5-(1-methyl-1H-pyrazol-4-yl)-[1,2,4]oxadiazol-3-yl]-cyclobutyl}-phenyl)-nicotinonitrile]
26 | 2.4 nM | 27 nM | Cn1cc(-c2nc(C3(c4ccc(-c5cnc6[nH]ccc6n5)cc4)CCC3)no2)cn1 [Example 262, 2-(4-{1-[5-(1-Methyl-1H-pyrazol-4-yl)-[1,2,4]oxadiazol-3-yl]-cyclobutyl}-phenyl)-5H-pyrrolo[2,3-b]pyrazine]
27 | 16 nM | 190 nM | Nc1ncc(-c2ccc(C3(c4noc(-c5cn(C6COC6)cn5)n4)CCC3)cc2)cn1 [Example 263, 5-(4-{1-[5-(1-Oxetan-3-yl-1H-imidazol-4-yl)-[1,2,4]oxadiazol-3-yl]-cyclobutyl}-phenyl)-pyrimidin-2-ylamine]
28 | 8.3 nM | 280 nM | Nc1ncc(-c2ccc(C3(c4noc(-c5cncn5C5COC5)n4)CCC3)cc2)cn1 [Example 264, 5-(4-{1-[5-(3-Oxetan-3-yl-3H-imidazol-4-yl)-[1,2,4]oxadiazol-3-yl]-cyclobutyl}-phenyl)-pyrimidin-2-ylamine]
